Experimental data taken from patent publication US20110091945A1, “METHODS OF INCREASING BIOMASS PRODUCTIVITY, LIPID INDUCTION, AND CONTROLLING METABOLITES IN ALGAE FOR PRODUCTION OF BIOFUELS USING BIOCHEMICAL STIMULANTS” (priority 2009, published 2011).

How the values were obtained:
Chlorella sorokiniana [1] = assay: Malathion twelve day growth study: chlorophyll a and chl a/b ratio; type: cell-based, Chlorella sorokiniana (UTEX 2805)
Description: • Analysis of growth parameters: Chlorophyll a was estimated following the method of Porra et al., (1989) Biochem. Biophys. Acta 975, 384-394. Biomass estimations were performed by filtering the cultures through pre-dried and weighed Whatman GF/C glass fiber filters (4.7 cm diameter; 1.2 μm pore size). After washing with 0.65 M ammonium formate, filters were then dried at 60° C. overnight and cooled in a desiccant pouch before re-weighing. Specific growth rates, divisions per day, and generation times were estimated based upon biomass data for days 6 to 9 and days 9 to 12 using the following equations:
(§1) • Test strain: Chlorella sorokiniana (UTEX 2805) was obtained from UTEX Culture Collections and maintained in BG11 medium (Stanier et al., (1971) Bacteria Rev. 35: 171-205, incorporated herein in its entirety). The pH of culture medium was adjusted to 7.5±0.2 before inoculation and the alga was maintained in a temperature controlled growth chamber at 25±1° C. and 100±10 μmol m^−2 s^−1 light intensity with 12/12 h L/D cycle provided by cool white fluorescent (6500 K) T-8 bulbs. • Pesticide: A twelve day time-scale growth study was conducted to evaluate the effect of pesticide toxicity on algal growth and metabolism. The pesticide malathion (Spectracide, 50% v/v) was used and added to fresh BG11 medium to obtain final concentrations of 70, 140, 280 and 560 mg of malathion L^−1 for the treatments. […] After sterilization, C. sorokiniana was added as inoculum to obtain an initial biomass concentration of 0.075 g L^−1 in all the treatments in triplicates. The cultures were incubated in the growth chamber as explained above. For each sampling period, three randomly chosen flasks of each treatment were removed and then refrigerated at 4° C. until further analysis.

Chlorella sorokiniana [2] = assay: Malathion growth study: neutral lipid content; type: cell-based, Chlorella sorokiniana (UTEX 2805); settings: for increase in lipid production over the control: day 6
Description: • Biomass Composition: Neutral lipids were estimated using an Ankom XT10 automated extractor (Chinnasamy et al., (2010) Bioresource Technol. 101: 3097-3105). Lipid content was measured gravimetrically using hexane as solvent. The same filters used for the biomass measurements (from 25 mL of culture) were used for the lipid estimation as they provided the initial weight of biomass (W1). The filters were then placed into Ankom XT4 extraction bags, sealed with the impulse sealer and then autoclaved at 121° C. for 15 min. After drying, the extraction bags were placed in a resealable plastic bag with desiccant material while each individual bag was removed and carefully weighed (W2). Extraction bags were then placed into the Ankom extractor and extraction was performed for 2 h at 105° C. with hexane as solvent. Bags were then transferred to a forced-air oven and dried at 60° C. overnight, then cooled in a dessicator and weighed (W3). The following equation was used to calculate the lipid content of algal samples:
as §1

[3] = test system: Stigeoclonium, Tribonema, and Vaucheria; settings: 1 μg L^−1; cited from earlier work

CCOC(=O)CC(SP(=S)(OC)OC)C(=O)OCC (stereo not shown) [malathion, 2-(dimethoxyphosphinothioylthio)butanedioic acid diethyl ester]
ratio of chl a to chl b (Chlorella sorokiniana [1]; 70 mg malathion L^−1, day 0): approximately 0.85
inhibition in chl a (Chlorella sorokiniana [1]; 70 mg malathion L^−1, day 3): 45%
inhibition in chl a (Chlorella sorokiniana [1]; 70 mg malathion L^−1, day 6): 49%
inhibition in chl a (Chlorella sorokiniana [1]; 70 mg malathion L^−1, day 9): 51%
inhibition in chl a (Chlorella sorokiniana [1]; 70 mg malathion L^−1, day 12): 26%
ratio of chl a to chl b (Chlorella sorokiniana [1]; 70 mg malathion L^−1, day 12): approximately 0.90
ratio of chl a to chl b (Chlorella sorokiniana [1]; 140 mg malathion L^−1, day 0): approximately 0.85
ratio of chl a to chl b (Chlorella sorokiniana [1]; 140 mg malathion L^−1, day 12): approximately 0.90
decrease of chl a/b ratio (Chlorella sorokiniana [1]; 280 mg malathion L^−1): approximately 100%
increase in lipid production over the control (Chlorella sorokiniana [2]; 70 mg malathion L^−1): 70%
increase in lipid over control (Chlorella sorokiniana [2]; 70 mg malathion L^−1, day 9): 42%
increase in lipid production over the control (Chlorella sorokiniana [2]; 140 mg malathion L^−1): 110%
increase in lipid over control (Chlorella sorokiniana [2]; 140 mg malathion L^−1, day 9): 119%
increase in lipid content over control (Chlorella sorokiniana [2]; 140 mg malathion L^−1, day 12): 25%
increase in lipid production over the control (Chlorella sorokiniana [2]; 280 mg malathion L^−1): 325%
increase in lipid over control (Chlorella sorokiniana [2]; 280 mg malathion L^−1, day 9): 212%
increase in lipid content of the cells with respect to day 3 (Chlorella sorokiniana [2]; T1, 70 mg malathion L^−1, day 9, control 97%): 193%
increase in lipid content of the cells with respect to day 3 (Chlorella sorokiniana [2]; T1, 70 mg malathion L^−1, day 12, control 287%): 406%
increase in lipid content of the cells with respect to day 3 (Chlorella sorokiniana [2]; T2, 140 mg malathion L^−1, day 9, control 97%): 150%
increase in lipid content of the cells with respect to day 3 (Chlorella sorokiniana [2]; T2, 140 mg malathion L^−1, day 12, control 287%): 574%
increase in lipid production (Chlorella sorokiniana [2]; concentrations ranging from 70-280 mg L^−1 in the growth medium): 70-325%
inhibition of chlorophyll production [3]: 100%
